Assay results as given in ChEMBL document CHEMBL3044672, “N9- and N7-(Chloromethyl Phenymethyl)Chloropurine Derivatives from , '-Dichloroxylenes: Synthesis and Anticancer Activity” (2005).

Legend:
Format in all cases: functional
Hs-578T = test: Cytotoxicity against Homo sapiens (human) Hs 578T cells after 48 hr by sulforhodamine B assay
MCF7 [1] = test: Cytotoxicity against Homo sapiens (human) MCF7 cells assessed as cell growth at 10^-4 M after 48 hr by Alamar blue assay; conditions: MCF7, 48 h, read-out: Activity
ACHN = test: Cytotoxicity against Homo sapiens (human) ACHN cells after 48 hr by sulforhodamine B assay; conditions: for CC50: read-out: LC50 (the source's name)
SF-295 = test: Cytotoxicity against Homo sapiens (human) SF295 cells after 48 hr by sulforhodamine B assay; conditions: SF-295, 48 h; for CC50: read-out: LC50 (the source's name)
SW-620 = test: Cytotoxicity against Homo sapiens (human) SW620 cells after 48 hr by sulforhodamine B assay; conditions: SW-620, 48 h; for CC50: read-out: LC50 (the source's name)
A498 = test: Cytotoxicity against Homo sapiens (human) A498 cells after 48 hr by sulforhodamine B assay; conditions: A498, 48 h
786-0 = test: Cytotoxicity against Homo sapiens (human) 786-0 cells after 48 hr by sulforhodamine B assay; conditions: 786-0, 48 h
LOX IMVI = test: Cytotoxicity against Homo sapiens (human) LOXIMVI cells after 48 hr by sulforhodamine B assay
TK-10 = test: Cytotoxicity against Homo sapiens (human) TK10 cells after 48 hr by sulforhodamine B assay; conditions: TK-10, 48 h; for CC50: read-out: LC50 (the source's name)
UO-31 = test: Cytotoxicity against Homo sapiens (human) UO31 cells after 48 hr by sulforhodamine B assay; conditions: UO-31, 48 h
RPMI-8226 = test: Cytotoxicity against Homo sapiens (human) RPMI8226 cells after 48 hr by sulforhodamine B assay; conditions: RPMI-8226, 48 h; for CC50: read-out: LC50 (the source's name)
HCT-15 = test: Cytotoxicity against Homo sapiens (human) HCT15 cells after 48 hr by sulforhodamine B assay; conditions: HCT-15, 48 h; for CC50: read-out: LC50 (the source's name)
SK-OV-3 = test: Cytotoxicity against Homo sapiens (human) SKOV3 cells after 48 hr by sulforhodamine B assay; conditions: SK-OV-3, 48 h
CCRF-CEM = test: Cytotoxicity against Homo sapiens (human) CCRF-CEM cells after 48 hr by sulforhodamine B assay; conditions: for CC50: read-out: LC50 (the source's name)
SK-MEL-28 = test: Cytotoxicity against Homo sapiens (human) SK-MEL-28 cells after 48 hr by sulforhodamine B assay; conditions: SK-MEL-28, 48 h
SNB-75 = test: Cytotoxicity against Homo sapiens (human) SNB75 cells after 48 hr by sulforhodamine B assay; conditions: SNB-75, 48 h; for CC50: read-out: LC50 (the source's name)
SNB-19 = test: Cytotoxicity against Homo sapiens (human) SNB19 cells after 48 hr by sulforhodamine B assay; conditions: SNB-19, 48 h
HOP-92 = test: Cytotoxicity against Homo sapiens (human) HOP92 cells after 48 hr by sulforhodamine B assay; conditions: HOP-92, 48 h; for CC50: read-out: LC50 (the source's name)
T47D = test: Cytotoxicity against Homo sapiens (human) T47D cells after 48 hr by sulforhodamine B assay
OVCAR-8 = test: Cytotoxicity against Homo sapiens (human) OVCAR8 cells after 48 hr by sulforhodamine B assay; conditions: OVCAR-8, 48 h
MCF7 [2] = test: Cytotoxicity against Homo sapiens (human) MCF7 cells after 48 hr by sulforhodamine B assay; conditions: MCF7, 48 h
M14 = test: Cytotoxicity against Homo sapiens (human) M14 cells after 48 hr by sulforhodamine B assay; conditions: M14, 48 h
BT-549 = test: Cytotoxicity against Homo sapiens (human) BT549 cells after 48 hr by sulforhodamine B assay; conditions: BT-549, 48 h
DU-145 = test: Cytotoxicity against Homo sapiens (human) DU145 cells after 48 hr by sulforhodamine B assay; conditions: DU-145, 48 h
SF-268 = test: Cytotoxicity against Homo sapiens (human) SF268 cells after 48 hr by sulforhodamine B assay; conditions: SF-268, 48 h; for CC50: read-out: LC50 (the source's name)
NCI-H460 [3] = test: Cytotoxicity against Homo sapiens (human) NCI-H460 cells assessed as cell growth at 10^-4 M after 48 hr by Alamar blue assay; conditions: NCI-H460, 48 h, read-out: Activity
OVCAR-5 = test: Cytotoxicity against Homo sapiens (human) OVCAR5 cells after 48 hr by sulforhodamine B assay; conditions: OVCAR-5, 48 h; for CC50: read-out: LC50 (the source's name)
NCI-H460 [4] = test: Cytotoxicity against Homo sapiens (human) NCI-H460 cells after 48 hr by sulforhodamine B assay; conditions: NCI-H460, 48 h; for CC50: read-out: LC50 (the source's name)

## ClCc1ccccc1Cn1cnc2c(Cl)ncnc21
Hs-578T
  GI50: 2.29 µM
  LC50: 56.2 µM
  TGI: 6.6 µM
MCF7 [1]
  growth at 100 µM: 43%
ACHN
  GI50: 2.7 µM
  TGI: 6.16 µM
  CC50: 26.9 µM
SF-295
  GI50: 10.5 µM
  TGI: 23.4 µM
  CC50: 51.3 µM
SW-620
  GI50: 1.77 µM
  TGI: 5.01 µM
  CC50: 26.3 µM
A498
  GI50: 17.4 µM
  LC50 (lethal concentration, 50% cell kill): 58.9 µM
  TGI: 32.4 µM
786-0
  GI50: 17.8 µM
  LC50: 83.2 µM
  TGI: 38 µM
LOX IMVI
  GI50: 2.13 µM
  LC50: > 100 µM
  TGI: 5.24 µM
TK-10
  GI50: 22.9 µM
  TGI: 46.8 µM
  CC50: 95.5 µM
UO-31
  GI50: 2.63 µM
  LC50 (concentration causing 50% net cell kill): 61.7 µM
  TGI: 10.5 µM
RPMI-8226
  GI50: 14.1 µM
  TGI: 40.7 µM
  CC50: > 100 µM
HCT-15
  GI50: 2.09 µM
  TGI: 4.67 µM
  CC50: 43.6 µM
SK-OV-3
  GI50: 4.17 µM
  LC50: 85.1 µM
  TGI: 15.8 µM
CCRF-CEM
  GI50: 1.28 µM
  TGI: 3.23 µM
  CC50: 8.12 µM
SK-MEL-28
  GI50: 2.29 µM
  LC50 (concentration killing 50% of cells): 24.6 µM
  TGI: 5.49 µM
SNB-75
  GI50: 2.88 µM
  TGI: 11 µM
  CC50: 39.8 µM
SNB-19
  GI50: 5.37 µM
  LC50: > 100 µM
  TGI: > 100 µM
HOP-92
  GI50: 1.48 µM
  TGI: 4.26 µM
  CC50: 21.4 µM
T47D
  GI50: 17.8 µM
  LC50: > 100 µM
  TGI: 61.7 µM
OVCAR-8
  GI50: 2.24 µM
  LC50 (concentration killing 50% of cells): 20.4 µM
  TGI: 5.24 µM
MCF7 [2]
  GI50: 11 µM
  LC50 (concentration killing 50% of cells): > 100 µM
  TGI: > 100 µM
M14
  GI50: 1.95 µM
  LC50: 7.24 µM
  TGI: 3.71 µM
BT-549
  GI50: 1.99 µM
  LC50 (50% lethal concentration): 19.9 µM
  TGI: 5.49 µM
DU-145
  GI50: 5.62 µM
  LC50: > 100 µM
  TGI: 34.7 µM
SF-268
  GI50: 3.23 µM
  TGI: 10.9 µM
  CC50: > 100 µM
NCI-H460 [3]
  growth at 100 µM: 0%
OVCAR-5
  GI50: 2.45 µM
  TGI: 6.6 µM
  CC50: 25.7 µM
NCI-H460 [4]
  GI50: 15.5 µM
  TGI: 44.7 µM
  CC50: > 100 µM

## ClCc1ccccc1Cn1cnc2ncnc(Cl)c21
Hs-578T
  GI50: 2.29 µM
  LC50: 66.1 µM
  TGI: 6.02 µM
MCF7 [1]
  growth at 100 µM: 1%
ACHN
  GI50: 1.99 µM
  TGI: 4.26 µM
  CC50: 9.12 µM
SF-295
  GI50: 7.94 µM
  TGI: 20.4 µM
  CC50: 46.8 µM
SW-620
  GI50: 2.23 µM
  TGI: 4.67 µM
  CC50: 10 µM
A498
  GI50: 18.6 µM
  LC50 (lethal concentration, 50% cell kill): 57.5 µM
  TGI: 33.1 µM
786-0
  GI50: 3.98 µM
  LC50: 47.9 µM
  TGI: 12.9 µM
LOX IMVI
  GI50: 1.34 µM
  LC50: 7.07 µM
  TGI: 3.09 µM
TK-10
  GI50: 3.46 µM
  TGI: 9.54 µM
  CC50: 33.9 µM
UO-31
  GI50: 3.23 µM
  LC50 (concentration causing 50% net cell kill): 77.6 µM
  TGI: 10.7 µM
RPMI-8226
  GI50: 2.08 µM
  TGI: 5.49 µM
  CC50: 50.1 µM
HCT-15
  GI50: 1.38 µM
  TGI: 2.88 µM
  CC50: 6.16 µM
SK-OV-3
  GI50: 7.58 µM
  LC50: 85.1 µM
  TGI: 26.9 µM
CCRF-CEM
  GI50: 1.44 µM
  TGI: 3.54 µM
  CC50: 8.7 µM
SK-MEL-28
  GI50: 4.46 µM
  LC50 (concentration killing 50% of cells): 79.4 µM
  TGI: 18.6 µM
SNB-75
  GI50: 11.2 µM
  TGI: 26.9 µM
  CC50: 63.1 µM
SNB-19
  GI50: 7.24 µM
  LC50: > 100 µM
  TGI: > 100 µM
HOP-92
  GI50: 4.36 µM
  TGI: 12.9 µM
  CC50: 51.3 µM
T47D
  GI50: 1.99 µM
  LC50: 4.26 µM
  TGI: 4.26 µM
OVCAR-8
  GI50: 2.75 µM
  LC50 (concentration killing 50% of cells): 58.9 µM
  TGI: 8.7 µM
MCF7 [2]
  GI50: 3.63 µM
  LC50 (concentration killing 50% of cells): > 100 µM
  TGI: > 100 µM
M14
  GI50: 1.9 µM
  LC50: 27.5 µM
  TGI: 5.12 µM
BT-549
  GI50: 2.45 µM
  LC50 (50% lethal concentration): 25.1 µM
  TGI: 6.02 µM
DU-145
  GI50: 2.95 µM
  LC50: 33.1 µM
  TGI: 10.2 µM
SF-268
  GI50: 4.78 µM
  TGI: 24.5 µM
  CC50: > 100 µM
NCI-H460 [3]
  growth at 100 µM: 0%
OVCAR-5
  GI50: 2.81 µM
  TGI: 7.24 µM
  CC50: 26.9 µM
NCI-H460 [4]
  GI50: 13.5 µM
  TGI: 60.2 µM
  CC50: > 100 µM

## ClCc1cccc(Cn2cnc3ncnc(Cl)c32)c1
Hs-578T
  GI50: 18.2 µM
  LC50: 97.7 µM
  TGI: 42.6 µM
MCF7 [1]
  growth at 100 µM: 1%
ACHN
  GI50: 1.86 µM
  TGI: 3.54 µM
  CC50: 7.76 µM
SF-295
  GI50: 6.3 µM
  TGI: 19.1 µM
  CC50: 64.6 µM
SW-620
  GI50: 15.1 µM
  TGI: 32.4 µM
  CC50: 7.41 µM
A498
  GI50: 18.2 µM
  LC50 (lethal concentration, 50% cell kill): 6.6 µM
  TGI: 36.3 µM
786-0
  GI50: 2.04 µM
  LC50: 70.8 µM
  TGI: 4.07 µM
LOX IMVI
  GI50: 3.09 µM
  LC50: 43.6 µM
  TGI: 14.1 µM
TK-10
  GI50: 1.77 µM
  TGI: 3.31 µM
  CC50: 6.3 µM
UO-31
  GI50: 1.54 µM
  LC50 (concentration causing 50% net cell kill): 26.9 µM
  TGI: 3.09 µM
RPMI-8226
  GI50: 13.8 µM
  TGI: 34.7 µM
  CC50: 89.1 µM
HCT-15
  GI50: 1.94 µM
  TGI: 4.36 µM
  CC50: > 100 µM
SK-OV-3
  GI50: 10.7 µM
  LC50: 8.12 µM
  TGI: 25.7 µM
CCRF-CEM
  GI50: 6.91 µM
  TGI: 22.4 µM
  CC50: 60.2 µM
SK-MEL-28
  GI50: 1.81 µM
  LC50 (concentration killing 50% of cells): 42.6 µM
  TGI: 3.54 µM
SNB-75
  GI50: 1.86 µM
  TGI: 3.54 µM
  CC50: 7.94 µM
SNB-19
  LC50: 6.76 µM
HOP-92
  CC50: 52.5 µM
T47D
  GI50: 0.21 µM
  LC50: 2.88 µM
  TGI: 0.5 µM
OVCAR-8
  GI50: 3.09 µM
  LC50 (concentration killing 50% of cells): 60.2 µM
  TGI: 14.8 µM
MCF7 [2]
  GI50: 1.58 µM
  LC50 (concentration killing 50% of cells): 39 µM
  TGI: 3.98 µM
M14
  GI50: 3.09 µM
  LC50: 67.6 µM
  TGI: 14.5 µM
BT-549
  GI50: 13.2 µM
  LC50 (50% lethal concentration): 63.1 µM
  TGI: 28.8 µM
DU-145
  GI50: 15.1 µM
  TGI: 30.9 µM
SF-268
  GI50: 1.65 µM
  TGI: 3.46 µM
  CC50: 47.9 µM
NCI-H460 [3]
  growth at 100 µM: 0%
OVCAR-5
  GI50: 6.76 µM
  TGI: 19.9 µM
  CC50: > 100 µM
NCI-H460 [4]
  GI50: 2.08 µM
  TGI: 4.46 µM
  CC50: 91.2 µM
